What was measured:
OAT1 (SLC22A6) = molecular target: T1, OAT1 (SLC22A6) (Homo sapiens, UniProt Q4U2R8); assay: Inhibition of OAT1 uptake of known substrate chlorothiazide; assay type: cell-based; details: probe substrate chlorothiazide 3 μM
T1 construct: host or cells: HEK-293
T1 sequence (Q4U2R8 1-563): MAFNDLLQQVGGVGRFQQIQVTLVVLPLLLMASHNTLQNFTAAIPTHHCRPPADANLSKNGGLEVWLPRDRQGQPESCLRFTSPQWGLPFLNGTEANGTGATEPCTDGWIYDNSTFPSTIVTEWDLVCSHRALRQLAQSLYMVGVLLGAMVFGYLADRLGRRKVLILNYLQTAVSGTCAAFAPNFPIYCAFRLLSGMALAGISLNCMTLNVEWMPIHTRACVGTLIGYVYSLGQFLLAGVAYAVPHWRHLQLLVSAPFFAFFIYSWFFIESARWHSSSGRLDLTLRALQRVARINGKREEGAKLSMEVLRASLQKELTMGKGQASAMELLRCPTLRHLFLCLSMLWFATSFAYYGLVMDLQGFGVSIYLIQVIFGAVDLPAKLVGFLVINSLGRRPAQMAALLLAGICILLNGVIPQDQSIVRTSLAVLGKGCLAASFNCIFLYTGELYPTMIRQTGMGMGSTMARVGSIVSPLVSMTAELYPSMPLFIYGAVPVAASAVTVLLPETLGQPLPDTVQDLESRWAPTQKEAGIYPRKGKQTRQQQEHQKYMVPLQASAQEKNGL
Description: DMSO (0.5%) was the solvent control (SC) and the known inhibitor diclofenac (100 μM) was the positive control (PC). Data were fit to either the Michalis-Menten equation for uptake or the Hill equation for inhibition using the solvent control to define the top and the positive control inhibitor to define the bottom. Symbols represent the mean±SEM, n=3.
Human OAT1 (SLC22A6) and OAT3 (SLC22A8) overexpressing HEK-293 cells and control cells without transfected transporter (Corning® TransportoCells™) are plated to 24-well plates and cellular uptake of 10 to 100 μg/mL of a Compound of the Disclosure is measured in the absence and presence of transporter inhibitors. Uptake of a Compound of the Disclosure into control cells is measured only without chemical inhibitors. […] Cells are grown in DMEM (Gibco 4196, high glucose, without sodium pyruvate) supplemented with MEM non-essential amino acids and 10% fetal bovine serum. Cells are re-fed with fresh medium after attachment (4-6 hours post-seeding). Cell are plated at a density of 4×10^5/well in 24-well plates coated with poly-D-lysine. Transporter assays are conducted in 400 μL of HBSS supplemented with 10 mM Hepes, pH 7.4 […]
The IC50 value for the test item is determined by fitting the Hill equation in the following form: […]

PepT1 = molecular target: T2, PepT1 (Homo sapiens, UniProt P46059); assay: Inhibition of PepT1 uptake of known substrate Gly-Sar; assay type: cell-based; details: probe substrate Gly-Sar 50 μM
T2 construct: expressed in transfected cells
T2 sequence (P46059 1-708): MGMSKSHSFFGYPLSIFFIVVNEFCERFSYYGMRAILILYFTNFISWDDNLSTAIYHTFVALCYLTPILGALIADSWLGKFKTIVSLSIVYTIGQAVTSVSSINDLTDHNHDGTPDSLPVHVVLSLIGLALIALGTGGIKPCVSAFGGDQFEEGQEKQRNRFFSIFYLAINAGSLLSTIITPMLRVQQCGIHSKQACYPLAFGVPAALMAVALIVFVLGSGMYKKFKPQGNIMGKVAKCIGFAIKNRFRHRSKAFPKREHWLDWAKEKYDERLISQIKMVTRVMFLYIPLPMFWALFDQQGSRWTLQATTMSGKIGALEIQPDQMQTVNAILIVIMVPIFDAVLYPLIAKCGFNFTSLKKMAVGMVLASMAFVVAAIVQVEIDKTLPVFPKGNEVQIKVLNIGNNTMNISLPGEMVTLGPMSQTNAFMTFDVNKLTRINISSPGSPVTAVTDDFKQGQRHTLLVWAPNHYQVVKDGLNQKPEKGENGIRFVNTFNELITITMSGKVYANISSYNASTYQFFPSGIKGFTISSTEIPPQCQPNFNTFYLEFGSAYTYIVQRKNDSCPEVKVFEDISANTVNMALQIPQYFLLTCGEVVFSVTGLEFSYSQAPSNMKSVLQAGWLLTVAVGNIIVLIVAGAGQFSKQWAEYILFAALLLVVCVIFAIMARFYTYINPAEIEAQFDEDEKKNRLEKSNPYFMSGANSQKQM
Description: FIG. 2(d) is a line graph showing the concentration-inhibition curves for the inhibition of uptake of known substrate dipeptide Gly-Sar (50 μM) for PepT1. DMSO (0.5%) was the solvent control (SC) and the known inhibitor for the positive control (PC) was losartan (200 μM). Data were fit to either the Michaelis-Menten equation for uptake or the Hill equation for inhibition using the solvent control to define the top and the positive control inhibitor to define the bottom. Symbols represent the mean±SEM, n=3.
The known probe substrates used as positive controls are 3 μM chlorothiazide for OAT1, 2 μM estrone-3-sulfate for OAT3, 10 μM gabapentin for LAT1, 50 μM Gly-Sar for PepT1, 500 μM thiophene-2-glyoxylic acid for MCT1.
The IC50 value for the test item is determined by fitting the Hill equation in the following form:
where A % is the percent activity remaining (the mean cellular uptake observed in the solvent control sample set to 100% and the mean cellular uptake observed in the presence of the positive control inhibitor set to 0%), Top and Bottom are the upper and lower plateau of A %. [I] is the inhibitor concentration and IC50 is the inhibitor concentration where the remaining activity is at the midpoint between the Top and Bottom.

physchem = assay type: physicochemical
Text: The physiochemical parameters of L-leucine were compared with N-acetyl-L-leucine. […] Log P is the octanol:water partition coefficient for the neutral form of a compound. In contrast, log D considers the ionization state of a molecule in aqueous (biological) solution resulting from basic groups gaining a proton and acidic groups losing a proton, and as such is better correlated with passive diffusion across membranes.

With `CC(=O)N[C@@H](CC(C)C)C(=O)O` [N-acetyl-L-leucine] as the compound, how does the IC50 (OAT1 (SLC22A6)) read?
Its IC50 is 6.2 mM.

And the IC50 (PepT1)?
The IC50 was 740 µM.

What about the logD (physchem) of the same compound?
Its logD is -2.54.

Reference: patent publication US20240208895A1, “BRANCHED-CHAIN AMINO ACID DERIVATIVES TO TREAT DISEASE” (INTRABIO LTD., priority 2021, published 2024)
